These results are taken from patent publication US20160159816A1, “SUBSTITUTED THIENOPYRIMIDINES AND PHARMACEUTICAL USE THEREOF” (BAYER PHARMA AKTIENGESELLSCHAFT, priority 2013, published 2016).

For orientation: IC50 means the concentration that gives 50% inhibition. A low value points to greater potency.

The structures appear in SMILES notation.

This assay deals with T1, human full-length MKNK1 (Homo sapiens, UniProt Q9BUB5, T385D).
T1 construct: GST (N); purchased Carna Biosciences 02-145; host or cells: insect cells, baculovirus expression system
T1 sequence (Q9BUB5 1-424 isoform Q9BUB5-2 T344D): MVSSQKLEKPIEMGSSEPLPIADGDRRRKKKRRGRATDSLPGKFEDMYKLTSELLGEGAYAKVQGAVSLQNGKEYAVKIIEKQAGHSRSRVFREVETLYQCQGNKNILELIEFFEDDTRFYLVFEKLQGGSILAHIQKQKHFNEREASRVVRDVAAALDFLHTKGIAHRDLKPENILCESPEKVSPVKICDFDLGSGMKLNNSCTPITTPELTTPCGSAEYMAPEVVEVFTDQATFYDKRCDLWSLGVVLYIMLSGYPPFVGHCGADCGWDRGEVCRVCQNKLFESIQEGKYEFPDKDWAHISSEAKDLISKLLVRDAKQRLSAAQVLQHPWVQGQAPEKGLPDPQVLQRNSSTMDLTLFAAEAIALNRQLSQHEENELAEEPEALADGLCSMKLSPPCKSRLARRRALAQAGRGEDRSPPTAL
The experiment in a line: MKNK1 kinase high ATP assay (TR-FRET). The assay is classed as biochemical. To be noted: high ATP (2 mM), after preincubation with MKNK1; compounds of the present invention (Table 1a). The protocol:
MKNK1-inhibitory activity at high ATP of compounds of the present invention after their preincubation with MKNK1 was quantified employing the TR-FRET-based MKNK1 high ATP assay as described in the following paragraphs.
A recombinant fusion protein of Glutathione-S-Transferase (GST, N-terminally) and human full-length MKNK1 (amino acids 1-424 and T344D of accession number BAA 19885.1), expressed in insect cells using baculovirus expression system and purified via glutathione sepharose affinity chromatography, was purchased from Carna Biosciences (product no 02-145) and used as enzyme. As substrate for the kinase reaction the biotinylated peptide biotin-Ahx-IKKRKLTRRKSLKG (C-terminus in amide form) was used, which can be purchased e.g. from the company Biosyntan (Berlin-Buch, Germany).
For the assay 50 nL of a 100 fold concentrated solution of the test compound in DMSO was pipetted into a black low volume 384 well microtiter plate (Greiner Bio-One, Frickenhausen, Germany), 2 μL of a solution of MKNK1 in aqueous assay buffer [50 mM HEPES pH 7.5, 5 mM MgCl2, 1.0 mM dithiothreitol, 0.005% (v/v) Nonidet-P40 (Sigma)] was added and the mixture was incubated for 15 min at 22° C. to allow pre-binding of the test compounds to the enzyme before the start of the kinase reaction. Then the kinase reaction was started by the addition of 3 μL of a solution of adenosine-tri-phosphate (ATP, 3.3 mM=>final conc. in the 5 μL assay volume is 2 mM) and substrate (0.1 μM=>final conc. in the 5 μL assay volume is 0.06 μM) in assay buffer and the resulting mixture was incubated for a reaction time of 30 min at 22° C. The concentration of MKNK1 was adjusted depending of the activity of the enzyme lot and was chosen appropriate to have the assay in the linear range, typical concentrations were in the range of 0.003 μg/mL. The reaction was stopped by the addition of 5 μL of a solution of TR-FRET detection reagents (5 nM streptavidine-XL665 [Cisbio Bioassays, Codolet, France] and 1 nM anti-ribosomal protein […] (pSer236)-antibody from Invitrogen [#44921G] and 1 nM LANCE EU-W1024 labeled ProteinG [Perkin-Elmer, product no. AD0071]) in an aqueous EDTA-solution (100 mM EDTA, 0.1% (w/v) bovine serum albumin in 50 mM HEPES pH 7.5).
The resulting mixture was incubated for 1 h at 22° C. to allow the formation of complex between the phosphorylated biotinylated peptide and the detection reagents. Subsequently the amount of phosphorylated substrate was evaluated by measurement of the resonance energy transfer from the Eu-chelate to the streptavidine-XL. Therefore, the fluorescence emissions at 620 nm and 665 nm after excitation at 350 nm were measured in a TR-FRET reader, e.g. a Rubystar (BMG Labtechnologies, Offenburg, Germany) or a Viewlux (Perkin-Elmer). The ratio of the emissions at 665 nm and at […] was taken as the measure for the amount of phosphorylated substrate. The data were normalised (enzyme reaction without inhibitor=0% inhibition, all other assay components but no enzyme=100% inhibition). […] Table 1a lists MKNK1 high ATP IC50 values of some compounds of the present invention.
A general note: Time-resolved FRET reads energy transfer from a long-lived donor to a nearby acceptor.
Molecule `COCC1(OC)CCc2c(sc3ncnc(Nc4ccc5[nH]ncc5c4)c23)C1` (single isomer, unassigned) [Example 39, (7S) or (7R) N-(1H-Indazol-5-yl)-7-methoxy-7-(methoxymethyl)-5,6,7,8-tetrahydro[1]benzothieno[2,3-d]pyrimidin-4-amine] showed a concentration for half-maximal inhibition (IC50) of 0.0693 µM.
`COc1cc2[nH]ncc2cc1Nc1ncnc2sc3c(c12)CCC(CN=[N+]=[N-])C3` (racemic) [Example 18, (RS)-7-(Azidomethyl)-N-(6-methoxy-1H-indazol-5-yl)-5,6,7,8-tetrahydro[1]benzothieno[2,3-d]pyrimidin-4-amine]: 0.0239 µM corresponded to half-maximal inhibition (IC50).
For `COCCN(C)C(=O)[C@@]1(C)CCc2c(sc3ncnc(Nc4cc5cn[nH]c5cc4OC)c23)C1` [Example 56, (7S) N-(2-Methoxyethyl)-4-[(6-methoxy-1H-indazol-5-yl)amino]-N,7-dimethyl-5,6,7,8-tetrahydro[1]benzothieno[2,3-d]pyrimidine-7-carboxamide], the concentration for half-maximal inhibition (IC50) turned out to be 0.0045 µM.
To `CC1CCc2c(sc3ncnc(Nc4cc5cn[nH]c5cc4Cl)c23)C1` (racemic) [Example 26, (RS)—N-(6-Chloro-1H-indazol-5-yl)-7-methyl-5,6,7,8-tetrahydro[1]benzothieno[2,3-d]pyrimidin-4-amine] belongs 0.327 µM; to `COCC1(OC)CCc2c(sc3ncnc(Nc4cc5cn[nH]c5cc4Cl)c23)C1` (single isomer, unassigned) [Example 46, (7R) or (7S) N-(6-Chloro-1H-indazol-5-yl)-7-methoxy-7-(methoxymethyl)-5,6,7,8-tetrahydro[1]benzothieno[2,3-d]pyrimidin-4-amine], 0.0892 µM.
Molecule `CC[C@]1(C(=O)N(C)C)CCc2c(sc3ncnc(Nc4cc5cn[nH]c5cc4OC)c23)C1` [Example 51, (7S) 7-Ethyl-4-[(6-methoxy-1H-indazol-5-yl)amino]-N,N-dimethyl-5,6,7,8-tetrahydro[1]benzothieno[2,3-d]pyrimidine-7-carboxamide] came in with an IC50 of 0.0017 µM.
To `CC(C)NC(=O)NCC1CCc2c(sc3ncnc(Nc4ccc5[nH]ncc5c4)c23)C1` (racemic) [Example 8, (RS)-1-{[4-(1H-Indazol-5-ylamino)-5,6,7,8-tetrahydro[1]benzothieno[2,3-d]pyrimidin-7-yl]methyl}-3-propan-2-ylurea] belongs 0.0344 µM.
Next, `COc1cc2[nH]ncc2cc1Nc1ncnc2sc3c(c12)CC[C@@](C)(C(=O)N(C)C)C3` [Example 49, (7R) 4-[(6-Methoxy-1H-indazol-5-yl)amino]-N,N,7-trimethyl-5,6,7,8-tetrahydro[1]benzothieno[2,3-d]pyrimidine-7-carboxamide]: 0.0133 µM; `OCc1cn(C[C@@H]2CCc3c(sc4ncnc(Nc5ccc6[nH]ncc6c5)c34)C2)nn1` (single isomer, unassigned) [Example 34, (1-{[(7R or 7S)-4-(1H-Indazol-5-ylamino)-5,6,7,8-tetrahydro[1]benzothieno[2,3-d]pyrimidin-7-yl]methyl}-1H-1,2,3-triazol-4-yl)methanol]: 0.0205 µM; `CC(C)OC(=O)NCC1CCc2c(sc3ncnc(Nc4ccc5[nH]ncc5c4)c23)C1` (racemic) [Example 9, (RS)-Propan-2-yl {[4-(1H-indazol-5-ylamino)-5,6,7,8-tetrahydro[1]benzothieno[2,3-d]pyrimidin-7-yl]methyl}carbamate]: 0.0302 µM.
Take `COCC1(OC)CCc2c(sc3ncnc(Nc4cc5cn[nH]c5cc4OC)c23)C1` (racemic) [Example 32, (RS)-7-Methoxy-N-(6-methoxy-1H-indazol-5-yl)-7-(methoxymethyl)-5,6,7,8-tetrahydro[1]benzothieno[2,3-d]pyrimidin-4-amine]: inhibition was half-maximal at 0.0091 µM (IC50).
For the molecule `COc1cc2[nH]ncc2cc1Nc1ncnc2sc3c(c12)CC[C@@](C)(C(=O)N(C)OC)C3` [Example 59, (7R) N-Methoxy-4-[(6-methoxy-1H-indazol-5-yl)amino]-N,7-dimethyl-5,6,7,8-tetrahydro[1]benzothieno[2,3-d]pyrimidine-7-carboxamide], the midpoint of inhibition, the IC50, lay at 0.0129 µM.
As to `COc1cc2[nH]ncc2cc1Nc1ncnc2sc3c(c12)CCC(C)C3` (racemic) [Example 27, (RS)—N-(6-Methoxy-1H-indazol-5-yl)-7-methyl-5,6,7,8-tetrahydro[1]benzothieno[2,3-d]pyrimidin-4-amine], the IC50 was determined as 0.0663 µM. This IC50 lies about 5.1-fold higher than the previous one.
Molecule `CC[C@@]1(C(=O)N(C)OC)CCc2c(sc3ncnc(Nc4cc5cn[nH]c5cc4OC)c23)C1` [Example 66, (7R) 7-Ethyl-N-methoxy-4-[(6-methoxy-1H-indazol-5-yl)amino]-N-methyl-5,6,7,8-tetrahydro[1]benzothieno[2,3-d]pyrimidine-7-carboxamide] yielded an IC50 of 0.0204 µM.
`CC[C@@]1(C(=O)N(C)C(C)C)CCc2c(sc3ncnc(Nc4cc5cn[nH]c5cc4OC)c23)C1` [Example 72, (7R) 7-Ethyl-N-isopropyl-4-[(6-methoxy-1H-indazol-5-yl)amino]-N-methyl-5,6,7,8-tetrahydro[1]benzothieno[2,3-d]pyrimidine-7-carboxamide] showed an IC50 of 0.0384 µM.
Next, `CC(C)(O)C1CCc2c(sc3ncnc(Nc4ccc5[nH]ncc5c4)c23)C1` (racemic) [Example 4, (RS)-2-[4-(1H-Indazol-5-ylamino)-5,6,7,8-tetrahydro[1]benzothieno[2,3-d]pyrimidin-7-yl]propan-2-ol]: 0.0391 µM; `O=P(OCC1CCc2c(sc3ncnc(Nc4ccc5[nH]ncc5c4)c23)C1)(Oc1ccccc1)Oc1ccccc1` (racemic) [Example 5, (RS)-[4-(1H-Indazol-5-ylamino)-5,6,7,8-tetrahydro[1]benzothieno[2,3-d]pyrimidin-7-yl]methyl diphenyl phosphate]: 0.205 µM; `COc1cc2[nH]ncc2cc1Nc1ncnc2sc3c(c12)CCC(CO)C3` (racemic) [Example 17, (RS)-{4-[(6-Methoxy-1H-indazol-5-yl)amino]-5,6,7,8-tetrahydro[1]benzothieno[2,3-d]pyrimidin-7-yl}methanol]: 0.0032 µM.
For `COc1cc2[nH]ncc2cc1Nc1ncnc2sc3c(c12)CCC(CN)C3` (racemic) [Example 19, (RS)-7-(aminomethyl)-N-(6-methoxy-1H-indazol-5-yl)-5,6,7,8-tetrahydro[1]benzothieno[2,3-d]pyrimidin-4-amine], it took 0.0062 µM to reach half-maximal inhibition (IC50).
The molecule `COCC1(OC)CCc2c(sc3ncnc(Nc4cc5cn[nH]c5cc4Cl)c23)C1` (single isomer, unassigned) [Example 47, (7S) or (7R) N-(6-Chloro-1H-indazol-5-yl)-7-methoxy-7-(methoxymethyl)-5,6,7,8-tetrahydro[1]benzothieno[2,3-d]pyrimidin-4-amine] gave an IC50 of 0.165 µM.
Consider `CC[C@@]1(C(=O)N(C)CCOC)CCc2c(sc3ncnc(Nc4cc5cn[nH]c5cc4OC)c23)C1` [Example 64, (7R) 7-Ethyl-N-(2-methoxyethyl)-4-[(6-methoxy-1H-indazol-5-yl)amino]-N-methyl-5,6,7,8-tetrahydro[1]benzothieno[2,3-d]pyrimidine-7-carboxamide], for which the IC50 amounted to 0.0263 µM.
To `COCC1(OC)CCc2c(sc3ncnc(Nc4cc5cn[nH]c5cc4C)c23)C1` (single isomer, unassigned) [Example 40, (7R) or (7S) 7-Methoxy-7-(methoxymethyl)-N-(6-methyl-1H-indazol-5-yl)-5,6,7,8-tetrahydro[1]benzothieno[2,3-d]pyrimidin-4-amine] belongs 0.487 µM.
For `OCc1cnnn1C[C@@H]1CCc2c(sc3ncnc(Nc4ccc5[nH]ncc5c4)c23)C1` (single isomer, unassigned) [Example 33, (1-{[(7R or 7S)-4-(1H-Indazol-5-ylamino)-5,6,7,8-tetrahydro[1]benzothieno[2,3-d]pyrimidin-7-yl]methyl}-1H-1,2,3-triazol-5-yl)methanol], the 50% inhibitory concentration (IC50) worked out at 0.0169 µM.
